In ChEMBL document CHEMBL3351970 (Bioorg Med Chem Lett, 2014):

Columns and labels:
[1] = target: T1, Transient receptor potential cation channel subfamily V member 1 (Homo sapiens, UniProt Q8NER1); experiment: Antagonist activity against human TRPV1 expressed in CHO cells assessed as inhibition of capsaicin-induced channel activation by FLIPR assay; format: cell-based
Mus musculus [2] = experiment: Inhibition of capsaicin-induced hypothermia in mouse administered orally 15 mins before capsaicin challenge and measured 30 mins post capsaicin injection; format: functional, organism-based
Mus musculus [3] = experiment: Inhibition of capsaicin-induced hypothermia in mouse at 0.1 mg/kg, po administered 15 mins before capsaicin challenge and measured 30 mins post capsaicin injection; format: functional
Mus musculus [4] = experiment: Inhibition of capsaicin-induced hypothermia in mouse at 1 mg/kg, po administered 15 mins before capsaicin challenge and measured 30 mins post capsaicin injection; format: functional
Mus musculus [5] = experiment: Inhibition of capsaicin-induced hypothermia in mouse at 0.3 mg/kg, po administered 15 mins before capsaicin challenge and measured 30 mins post capsaicin injection; format: functional
Mus musculus [6] = experiment: Anti-allodynic activity in mouse model of chronic constriction injury-induced neuropathic pain assessed as inhibition of pain response at 0.01 mg/kg, po; format: functional
Mus musculus [7] = experiment: Anti-allodynic activity in mouse model of chronic constriction injury-induced neuropathic pain assessed as inhibition of pain response at 0.1 mg/kg, po; format: functional
Mus musculus [8] = experiment: Anti-allodynic activity in mouse model of chronic constriction injury-induced neuropathic pain assessed as inhibition of pain response at 0.001 mg/kg, po; format: functional
Mus musculus [9] = experiment: Anti-allodynic activity in orally dosed mouse model of chronic constriction injury-induced neuropathic pain assessed as inhibition of pain response; format: functional; details: po
[10] = target: T1, Transient receptor potential cation channel subfamily V member 1; experiment: Antagonist activity against human TRPV1 expressed in CHO cells assessed as inhibition of NADA-induced channel activation by FLIPR assay; format: cell-based
Mus musculus [11] = experiment: Inhibition of capsaicin-induced hypothermia in mouse at 10 mg/kg, po administered 15 mins before capsaicin challenge and measured 30 mins post capsaicin injection; format: functional
Mus musculus [12] = experiment: Anti-allodynic activity in mouse model of chronic constriction injury-induced neuropathic pain assessed as inhibition of pain response at 0.0001 mg/kg, po; format: functional
[13] = target: T1, Transient receptor potential cation channel subfamily V member 1; experiment: Antagonist activity against human TRPV1 expressed in CHO cells assessed as inhibition of pH-induced channel activation by FLIPR assay; format: cell-based
[14] = target: T1, Transient receptor potential cation channel subfamily V member 1; experiment: Antagonist activity against human TRPV1 expressed in CHO cells assessed as inhibition of 45 degC heat-induced channel activation by FLIPR assay; format: cell-based

T1 sequence (Q8NER1 whole entry): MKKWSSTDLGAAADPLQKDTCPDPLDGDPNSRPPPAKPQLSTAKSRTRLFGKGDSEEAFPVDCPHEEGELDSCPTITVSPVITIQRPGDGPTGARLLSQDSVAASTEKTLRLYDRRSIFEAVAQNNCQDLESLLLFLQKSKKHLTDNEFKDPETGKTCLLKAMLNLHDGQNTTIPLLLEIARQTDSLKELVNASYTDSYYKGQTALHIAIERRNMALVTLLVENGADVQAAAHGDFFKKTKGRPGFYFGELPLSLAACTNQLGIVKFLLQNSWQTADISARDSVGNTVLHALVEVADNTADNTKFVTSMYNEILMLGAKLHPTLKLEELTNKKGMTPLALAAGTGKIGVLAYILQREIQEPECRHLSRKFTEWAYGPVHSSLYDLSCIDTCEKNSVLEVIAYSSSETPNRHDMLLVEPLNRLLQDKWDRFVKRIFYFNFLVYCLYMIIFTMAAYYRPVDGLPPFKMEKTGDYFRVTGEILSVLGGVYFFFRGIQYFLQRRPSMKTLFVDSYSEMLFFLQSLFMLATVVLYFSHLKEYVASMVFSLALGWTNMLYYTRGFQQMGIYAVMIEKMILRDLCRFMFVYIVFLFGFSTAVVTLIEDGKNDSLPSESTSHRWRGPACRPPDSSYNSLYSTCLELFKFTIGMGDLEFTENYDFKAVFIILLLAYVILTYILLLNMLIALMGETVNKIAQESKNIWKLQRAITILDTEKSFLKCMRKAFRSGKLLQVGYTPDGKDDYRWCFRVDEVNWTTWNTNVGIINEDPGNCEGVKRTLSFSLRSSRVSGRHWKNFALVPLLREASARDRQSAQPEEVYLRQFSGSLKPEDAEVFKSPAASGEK

CC(C(=O)NCc1ccc(C(F)(F)F)nc1-n1ccnc1)c1ccc(NS(C)(=O)=O)c(F)c1 (stereo unspecified)
Ki [1]: 36.1 nM

CC(C(=O)NCc1ccc(C(F)(F)F)nc1-c1ccco1)c1ccc(NS(C)(=O)=O)c(F)c1 (stereo unspecified)
Ki [1]: 5.8 nM

CC(C(=O)NCc1ccc(C(F)(F)F)nc1-c1ccsc1)c1ccc(NS(C)(=O)=O)c(F)c1 (stereo unspecified)
Ki [1]: 2 nM

CC(C(=O)NCc1ccc(C(F)(F)F)nc1Cc1ccccc1)c1ccc(NS(C)(=O)=O)c(F)c1 (stereo unspecified)
Ki [1]: 141 nM

COc1cc(OC)cc(-c2nc(C(F)(F)F)ccc2CNC(=O)C(C)c2ccc(NS(C)(=O)=O)c(F)c2)c1 (stereo unspecified)
Ki [1]: 58 nM

CC(C(=O)NCc1ccc(C(F)(F)F)nc1-c1cc2ccccc2s1)c1ccc(NS(C)(=O)=O)c(F)c1 (stereo unspecified)
Ki [1]: 1 nM

CC(C(=O)NCc1ccc(C(F)(F)F)nc1-c1ccc(F)cc1)c1ccc(NS(C)(=O)=O)c(F)c1 (stereo unspecified)
inhibition (Mus musculus [2]): Dose-dependent effect
inhibition in vivo at 0.1 mg/kg (Mus musculus [3]): 25%
inhibition in vivo at 1 mg/kg (Mus musculus [4]): 60%
inhibition in vivo at 0.3 mg/kg (Mus musculus [5]): 38%
MPE (Mus musculus [6]): 52.9%
MPE (Mus musculus [7]): 47.1%
MPE (Mus musculus [8]): 30.5%
ED50 (Mus musculus [9]): 0.01 mg/kg
Ki [10]: 0.84 nM
inhibition in vivo at 10 mg/kg (Mus musculus [11]): 91%
MPE (Mus musculus [12]): 21.9%
Ki [13]: 131 nM
Ki [14]: 25.9 nM

CC(C(=O)NCc1ccc(C(F)(F)F)nc1/C=C/c1ccccc1)c1ccc(NS(C)(=O)=O)c(F)c1 (stereo unspecified)
Ki [1]: 2.2 nM

CC(C(=O)NCc1ccc(C(F)(F)F)nc1-c1ccoc1)c1ccc(NS(C)(=O)=O)c(F)c1 (stereo unspecified)
Ki [1]: 1.4 nM
